Measurements from paper PMC12391581 (Antiviral Research, 2025).
Where “and” joins values, the source holds several entries; their conditions need not be identical. Equal values may be shown once. Marks after values point to notes of the source that are not given here.

How the values were obtained:
A(H3N2) viruses [1] = type: cell-based, influenza A(H3N2) virus
A(H3N2) viruses [2] = type: cell-based, influenza A(H3N2) virus; remark: listed apart in the source
A(H1N1)pdm09 viruses = type: cell-based, influenza A(H1N1)pdm09 virus
[3] = tested on: neuraminidase (NA) of B/Victoria-lineage viruses; type: biochemical, influenza B/Victoria-lineage virus
[4] = tested on: neuraminidase (NA) of A(H3N2) viruses; type: biochemical, influenza A(H3N2) virus
[5] = tested on: neuraminidase (NA) of A(H1N1)pdm09 viruses; type: biochemical, influenza A(H1N1)pdm09 virus

For COC(=O)OCOc1c2n(ccc1=O)N([C@@H]1c3ccccc3SCc3c1ccc(F)c3F)[C@@H]1COCCN1C2=O [Baloxavir, baloxavir marboxil], the “HINT fold-change compared to PA-sequence matched virus” value (A(H3N2) viruses [1]) was 4.4 fold, the “IRINA fold-change compared to PA-sequence matched virus” value (A(H3N2) viruses [2]) was 4.8 fold and the “EC50 fold-change compared to reference median EC50 values” (A(H1N1)pdm09 viruses) was 2.72 fold and 2.72 ^e fold. For the same molecule, the “Fold change in EC50” value (A(H1N1)pdm09 viruses) was 2.72^d fold and the baloxavir susceptibility phenotype (A(H1N1)pdm09 viruses) was “RS (key: RS to baloxavir is provisionally defined as >3-fold change in EC50 of a test virus compared to the subtype/lineage-specific median EC50 values)”.
For [H]/N=C(\N)N[C@H]1C=C(C(=O)O)O[C@@H]([C@H](OC)[C@H](O)CO)[C@@H]1NC(C)=O [Laninamivir, laninamivir], the “Fold-change in IC50” value [3] was 0.91 fold and the “IC50 fold-change compared to reference median IC50 values” [3] was 0.91 fold.
In the case of CCOC(=O)C1=C[C@@H](OC(CC)CC)[C@H](NC(C)=O)[C@@H](N)C1 [Oseltamivir, oseltamivir], the “Fold-change in IC50” value [4] was 1.86 fold and the “IC50 fold-change compared to reference median IC50 values” [4] was 1.86 fold.
For CCC(CC)[C@H](NC(C)=O)[C@@H]1[C@H](O)[C@@H](C(=O)O)C[C@H]1N=C(N)N [Peramivir, peramivir], the “Fold-change in IC50” value [3] was 158 fold, the “IC50 fold-change compared to reference median IC50 values” [3] was 158 fold and the “NAI inhibition phenotype (NI/RI/HRI)” value [3] was “HRI (key: normal inhibition (NI) is a <5-fold increase in the NAI IC50; RI is a 5- to 50-fold increase; HRI is a >50-fold increase)”. The “NAI inhibition phenotype (NI/RI/HRI)” value [5] was “HRI (key: normal inhibition (NI) is a <10-fold increase in the NAI IC50; RI is a 10- to 100-fold increase; HRI is a >100-fold increase)”.
In the case of CC(=O)N[C@H]1[C@H]([C@H](O)[C@H](O)CO)OC(C(=O)O)=C[C@@H]1N=C(N)N [Zanamivir, zanamivir], the “Fold-change in IC50” value [4] was 10.16 fold, the “IC50 fold-change compared to reference median IC50 values” [4] was 10.16 fold and the “NAI inhibition phenotype (NI/RI/HRI)” value [4] was “RI (key: normal inhibition (NI) is a <10-fold increase in the NAI IC50; RI is a 10- to 100-fold increase; HRI is a >100-fold increase)”. The “IC50 fold-change (borderline RI)” value [3] was 5.76- to 6.25 fold.
